# Test results from publication PMC8429736, “Pharmacological characterization of mutant huntingtin aggregate-directed PET imaging tracer candidates” (Scientific Reports, 2021).
# Columns and labels:
# [1] = test system: beta amyloid/tau aggregates in post-mortem AD patient brain homogenates; experiment: ADbh RBA saturation (direct) binding; design: species or system human; settings: 100 µg homogenate per well
# Method: (§1) For RBA in vitro binding assays, brain tissue was sliced (50 µm), weighed and homogenized in PBS (Gibco, 14190-94), 0.1% BSA with a glass pestle (10 strokes) at a concentration of 12–15 mg wet tissue per mL buffer. The crude homogenate concentration was then adjusted to 10 mg/mL (wet tissue) and stored as single-use aliquots at -80 °C.
# (§2) RBA experiments using Alzheimer’s disease brain homogenates (ADbh RBA) followed the same assay principle as the RBA with recombinant HTT protein, using 0.68 mg/mL homogenate (100 µg per well with 150 µL assay volume) in assay buffer PBS, 0.01% Pluronic F127 (Sigma. P2443) and 1% DMSO after compound addition. Competition experiments were conducted with 0.5 nM radioligand 4 and 50 µg homogenate per well. Incubation at room temperature was conducted for 20 min after compound addition and for 5 h after radioligand addition. For the competition format, raw cpm were normalized towards assay controls as before, to obtain inhibition between 0 and 100%. For saturation binding, raw cpm were converted into nM as before, using a calibration line of total added radioligand, and normalized to mg of added homogenate to finally obtain pmol/mg.
# [2] = test system: beta amyloid/tau aggregates in post-mortem AD patient brain homogenates; experiment: ADbh RBA competition format; format: binding, human; settings: for displacement of bound 5: radioligand 5
# Method: as §1
# as §2, with “Competition experiments were conducted with 0.5 nM radioligand 4 and 50 µg homogenate per well.” left out
# [3] = target: phospho-Tau tangles (AT8 antibody) (Homo sapiens, UniProt P10636); experiment: HR ARG co-registration with AT8 antibody, human AD brain sections; format: binding; settings: 10 nM CHDI-180, 10 nM CHDI-626, 0.1 nM PiB, 1 nM T808
# Exon1-Q46 aggregates = target: T1, Exon1-Q46 aggregates (Homo sapiens, UniProt P42858, INS38QQQQQQQQQQQQQQQQQQQQQQQQQ); experiment: RBA competition binding against tritiated 3, Exon1-Q46 aggregates; settings: 0.3 nM tritiated 3 as radioligand; 1 µM aggregates; mean ± SD; read-out: IC50 Exon1-Q46
# T1 construct: MBP-HTT(1-89)Q46-His(6x); MBP (N, cleaved yes); made in house; host or cells: E. coli BL21 (DE3)
# Method: (§3) For the competition assay format, Q46 or Exon1-Q46 aggregates at 1 µM (sample volume 150 µL) were pre-incubated in a 96-well round bottom plate (Corning, #3365) for 20 min with test compounds at room temperature (assay buffer 50 mM Tris–HCl pH 8.0, 150 mM NaCl). […] Radioligand 3 at 0.3 nM was added and incubated for 1 h at 37 °C.
# (§4) Samples were then transferred onto a 96-well GF/B filter plate (Perkin Elmer, #6005177) using a Filtermate Harvester, aspirated by vacuum and wells washed twice with 200 µL PBS. After drying the filter plates for 1 h at 55 °C the back of the plate was sealed with aluminum cover and 30 µL of scintillation fluid (Perkin Elmer, #6013641) per well was added. The tops of the plates were sealed, and the plates were incubated for 15 min in the dark and counted in a TopCount or MicroBeta2 reader (both Perkin Elmer).
# (§5) Raw sample data collected as counts per minute (cpm) were normalized towards assay controls: 0% inhibition = radioligand + protein + vehicle, 100% inhibition = radioligand + protein + 1 µM unlabeled ligand. A 4-parameter […] fit was applied to generate IC50 values.
# Q46 aggregates = experiment: RBA competition binding against tritiated 3, Q46 aggregates; settings: 0.3 nM tritiated 3 as radioligand; 1 µM aggregates; mean ± SD
# Method: as §3, §4, §5
# [4] = target: beta amyloid plaques (6E10 antibody) (Homo sapiens, UniProt P05067); experiment: HR ARG co-registration with 6E10 antibody, human AD brain sections; format: binding; settings: 10 nM CHDI-180, 10 nM CHDI-626, 0.1 nM PiB, 1 nM T808
# Chain of beta amyloid plaques (6E10 antibody) (P05067 672-713 limits assumed): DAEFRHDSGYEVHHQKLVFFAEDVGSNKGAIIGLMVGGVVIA
# T1 sequence (P42858 with tags, fused parts or gaps with the stated changes): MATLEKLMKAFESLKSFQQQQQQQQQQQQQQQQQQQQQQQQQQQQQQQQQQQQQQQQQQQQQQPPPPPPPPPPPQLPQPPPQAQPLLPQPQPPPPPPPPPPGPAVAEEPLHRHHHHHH
# Chain of phospho-Tau tangles (AT8 antibody) (P10636 623-695 limits assumed): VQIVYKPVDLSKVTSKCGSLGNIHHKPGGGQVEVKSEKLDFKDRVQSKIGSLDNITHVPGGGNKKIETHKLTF
"Bmax, AD brain homogenate [1]","displacement of 4 at 0.1 µM ([2]; radioligand 4, compound 0.1 µM)",displacement of bound 5 [2],co-registration with AT8-positive phospho-Tau immunoreactivity [3],IC50 (Exon1-Q46 aggregates),IC50 (Q46 aggregates),co-registration with 6E10-positive beta amyloid plaques [4],Kd [1],Structure (SMILES),heterologous competition with radioligand 4 ([2]; radioligand 4)
10.5 pmol/mg,fully displace,complete displacement,not with AT8 immunoreactivity,,,,,[11CH3]Nc1ccc(-c2nc3ccc(O)cc3s2)cc1 [PiB],complete displacement
,,complete displacement,,,,,,CNc1ccc(-c2nc3ccc(O)cc3s2)cc1F [Flutemetamol],complete displacement
,,~ 50%,co-registered with AT8,> 333 nM,> 333 nM,not with 6E10 antibody,,FCCC1CCN(c2ccn3c(n2)nc2ccccc23)CC1 [Compound T808],could not compete
,,,,72.5 ± 0.4 nM,> 333 nM,,3.4 nM,CNc1ccc(-c2nc3ccc(O)cc3s2)cc1 [PiB],
